Read-outs that look alike come from different tables or passages of the source.
How the values were obtained:
[1] = tested on: IL-23-stimulated STAT-dependent luciferase reporter in Kit225 T cells; assay: Kit225 T cell assay, IL-23 stimulated STAT-dependent luciferase reporter; type: cell-based, human
Procedure, shortened: (§1)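 Stimulus was either 200 U/mL human recombinant IFNα or 20 ng/mL IL-23, applied for 5-6 h to reporter-bearing Kit225 T cells grown in RPMI/10% FBS. Luciferase expression then quantified by luminescent assay.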

[2] = tested on: IFNα-stimulated STAT-dependent luciferase reporter in Kit225 T cells; assay: Kit225 T cell assay, IFNα stimulated STAT-dependent luciferase reporter; type: cell-based, human
Procedure, shortened: as §1

[3] = Kit225 T cells, 20 ng/mL human recombinant IL-23, 5-6 hours, luciferase, read-out: IL23 (Kit225 T Cell Inhibition Data)
[4] = Kit225 T cells, 200 U/mL human recombinant IFNα, 5-6 hours, luciferase, read-out: IFNα (Kit225 T Cell Inhibition Data)

| SMILES | IC50 [1, 3] | IC50 [2, 4] | IC50 ([1]; Homo sapiens, KIT225, read-out: IL23 (Kit225 T Cell Inhibition Data)) | IC50 ([2]; Homo sapiens, KIT225, read-out: IFNα (Kit225 T Cell Inhibition Data)) |
| --- | --- | --- | --- | --- |
| CNC(=O)c1cnc(Nc2ccc3ccccc3n2)cc1Nc1ccccc1C(C)(C)O [Example 180] | 5090 nM | 2580 nM |  |  |
| CNC(=O)c1cnc(Nc2cccc(C)n2)cc1Nc1ccccc1S(C)(=O)=O [Example 21] | 50.9 nM | 30 nM |  |  |
| CCc1cc(C#N)ccc1Nc1cc(Nc2cc(C)nc(C)n2)ncc1C(=O)NC [Example 401] | 480 nM | 440 nM |  |  |
| CNC(=O)c1cnc(Nc2ccc3ccccc3n2)cc1NC1CCC(F)(F)CC1 [Example 292] | 4720 nM | 5600 nM |  |  |
| CNC(=O)c1cnc(Nc2ccc(F)cn2)cc1Nc1ccc(OC)cc1C(N)=O [Example 250] | 472 nM | 300 nM |  |  |
| CNC(=O)c1cnc(Nc2cccc(OC)n2)cc1Nc1ccc(Cl)cc1OC [Example 108] | 369 nM | 230 nM |  |  |
| CNC(=O)c1cnc(Nc2cc(C)nc(C)n2)cc1Nc1cccc(-c2ncn(CCF)n2)c1OC [Example 377] | 20 nM | 20 nM |  |  |
| CNC(=O)c1cnc(Nc2ccccn2)cc1Nc1ccc(S(C)(=O)=O)cc1OC [Example 45] | 4260 nM | 1250 nM |  |  |
| CNC(=O)c1cnc(Nc2cc(F)ccn2)cc1Nc1ccccc1S(C)(=O)=O [Example 23] | 115 nM | 90 nM |  |  |
| CNC(=O)c1cnc(Nc2cc(C#N)ccn2)cc1Nc1cccc(F)c1OC [Example 173] | 81.9 nM | 50 nM |  |  |
| CNC(=O)c1cnc(Nc2cc(C)nc(C)n2)cc1Nc1ccccc1S(C)(=O)=O [Example 300] | 280 nM | 130 nM |  |  |
| CNC(=O)c1cnc(Nc2ccc(F)cn2)cc1Nc1ccc(N2CCOCC2)cc1OC [Example 187] | 2820 nM | 2580 nM |  |  |
| CNC(=O)c1cnc(Nc2ccc(F)cn2)cc1Nc1ccccc1NS(C)(=O)=O [Example 279] | 476 nM | 140 nM |  |  |
| CNC(=O)c1cnc(Nc2ccc(F)cn2)cc1Nc1ccc(Cl)cc1OC [Example 99] | 479 nM | 310 nM |  |  |
| CNC(=O)c1cnc(Nc2ccc(N3CCOCC3)cn2)cc1Nc1ccccc1F [Example 214] | 2930 nM | 2010 nM |  |  |
| CNC(=O)c1cnc(Nc2cc(F)ccn2)cc1Nc1cccc(F)c1S(C)(=O)=O [Example 50] | 1540 nM | 2000 nM |  |  |
| CNC(=O)c1cnc(Nc2ccc(C)cn2)cc1Nc1ccccc1S(C)(=O)=O [Example 22] | 64.9 nM | 50 nM |  |  |
| CNC(=O)c1cnc(Nc2ccc(N3CCOCC3)cn2)cc1Nc1cc(F)cc(F)c1OC [Example 406] | 250 nM | 100 nM |  |  |
| CNC(=O)c1cnc(Nc2ccc(F)cn2)cc1Nc1ccc(C(=O)NCCc2c[nH]cn2)cc1OC [Example 249] | 10500 nM | 6410 nM |  |  |

| SMILES | IC50 [1, 3] | IC50 [2, 4] | IC50 ([1]; Homo sapiens, KIT225, read-out: IL23 (Kit225 T Cell Inhibition Data)) | IC50 ([2]; Homo sapiens, KIT225, read-out: IFNα (Kit225 T Cell Inhibition Data)) |
| --- | --- | --- | --- | --- |
| CNC(=O)c1cnc(Nc2cc(C)c(F)cn2)cc1Nc1ccccc1S(C)(=O)=O [Example 60] | 60 nM | 40 nM |  |  |
| CNC(=O)c1cnc(Nc2ccc(F)cn2)cc1Nc1ccc(C(=O)N2CCOCC2)cc1S(C)(=O)=O [Example 305] | 2650 nM | 3110 nM |  |  |
| CNC(=O)c1cnc(Nc2ccc(OC)cn2)cc1Nc1cc(F)cc(F)c1OC [Example 133] | 179 nM | 70 nM |  |  |
| CNC(=O)c1cnc(Nc2ccc(N3CCOCC3)cn2)cc1Nc1c(F)cccc1OC [Example 219] | 5090 nM | 2810 nM |  |  |
| CNC(=O)c1cnc(Nc2cc(C)nc(C)n2)cc1Nc1cccc(-c2nc(C)n(CCF)n2)c1OC [Example 368] | 9.45 nM | 10 nM |  |  |
| CNC(=O)c1cnc(Nc2cc(C(C)(C)C)ccn2)cc1Nc1ccccc1S(C)(=O)=O [Example 18] | 1120 nM | 400 nM |  |  |
| CNC(=O)c1cnc(Nc2cc(C)c(F)cn2)cc1Nc1cccc(-c2nnn[nH]2)c1OC [Example 390] | 1030 nM | 330 nM |  |  |
| CNC(=O)c1cnc(Nc2ccc(F)cn2)cc1Nc1ccccc1S(N)(=O)=O [Example 429] | 250 nM | 150 nM |  |  |
| CNC(=O)c1cnc(Nc2cc(C)ccn2)cc1Nc1ccccc1S(C)(=O)=O [Example 4] | 36 nM | 30 nM |  |  |
| CNC(=O)c1cnc(Nc2cc(C)c(F)cn2)cc1Nc1cccc(-c2nnc[nH]2)c1OC [Example 360] | 30 nM | 7.74 nM |  |  |
| CNC(=O)c1cnc(Nc2ccc(OC)cn2)cc1Nc1ccc(Cl)cc1OC [Example 112] | 717 nM | 400 nM |  |  |
| CNC(=O)c1cnc(Nc2cc(C(=O)N3CCOCC3)ccn2)cc1Nc1ccc(F)cc1OC [Example 269] | 1080 nM | 900 nM |  |  |
| CNC(=O)c1cnc(Nc2cc(C)nc(C)n2)cc1Nc1cccc(F)c1OC [Example 410] | 20 nM | 8.61 nM |  |  |
| CNC(=O)c1cnc(Nc2ccc(F)cn2)cc1Nc1ccccc1O [Example 208] | 1850 nM | 2410 nM |  |  |
| CNC(=O)c1cnc(Nc2ccc(-n3cc(F)ccc3=O)cn2)cc1Nc1ccc(Cl)cc1OC [Example 106] | 439 nM | 180 nM |  |  |
| CNC(=O)c1cnc(Nc2ccc(C)nn2)cc1Nc1ccccc1S(C)(=O)=O [Example 414] | 650 nM | 280 nM |  |  |
| CNC(=O)c1cnc(Nc2ccn(-c3ccc(Cl)cc3)n2)cc1Nc1ccccc1S(C)(=O)=O [Example 446] | 150 nM | 180 nM |  |  |
| CNC(=O)c1cnc(Nc2ccc(-n3cc(F)ccc3=O)cn2)cc1Nc1ccccc1S(C)(=O)=O [Example 301] | 3160 nM | 1460 nM |  |  |
| CNC(=O)c1cnc(Nc2ccc3cnccc3n2)cc1Nc1ccccc1S(C)(=O)=O [Example 417] | 260 nM | 330 nM |  |  |

Now from value to molecule:

| IC50 [1, 3] | IC50 [2, 4] | IC50 ([1]; Homo sapiens, KIT225, read-out: IL23 (Kit225 T Cell Inhibition Data)) | IC50 ([2]; Homo sapiens, KIT225, read-out: IFNα (Kit225 T Cell Inhibition Data)) | SMILES |
| --- | --- | --- | --- | --- |
| 7810 nM | 7850 nM |  |  | CNC(=O)c1cnc(Nc2ccc(F)cn2)cc1Nc1ccccc1-c1nnc[nH]1 [Example 186] |
| 370 nM | 210 nM |  |  | CNC(=O)c1cnc(Nc2cc(C)c(F)cn2)cc1Nc1ccc(C(=O)N2CCCC2)cc1S(C)(=O)=O [Example 411] |
| 470 nM | 460 nM |  |  | CNC(=O)c1cnc(Nc2cc(C)c(F)cn2)cc1Nc1ccc(C(=O)N2CC(F)(F)C2)cc1S(C)(=O)=O [Example 413] |
| 187 nM | 120 nM |  |  | CNC(=O)c1cnc(Nc2cccc(C)n2)cc1Nc1cc(F)cc(F)c1OC [Example 132] |
| 150 nM | 130 nM |  |  | CNC(=O)c1cnc(Nc2cc(C)c(F)cn2)cc1Nc1cccc(C(=O)NCC2(O)CCC2)c1OC [Example 342] |
| 4510 nM | 1880 nM |  |  | CNC(=O)c1cnc(Nc2ccc(C(F)(F)F)cn2)cc1Nc1ccc(Cl)cc1OC [Example 120] |
| 98.5 nM | 70 nM |  |  | CNC(=O)c1cnc(Nc2ccc(F)cn2)cc1Nc1ccccc1S(C)(=O)=O [Example 1] |
| 157 nM | 90 nM |  |  | CNC(=O)c1cnc(Nc2ccc(N3CCOCC3)cn2)cc1Nc1cccc2c1OCCO2 [Example 225] |
| 670 nM | 380 nM |  |  | CNC(=O)c1cnc(Nc2cc(N(C)Cc3ccccc3)ncn2)cc1Nc1ccccc1S(C)(=O)=O [Example 425] |
| 3730 nM | 3570 nM |  |  | CNC(=O)c1cnc(Nc2ccc(C(F)(F)F)cn2)cc1NC1CCCC1C(N)=O (stereo not shown) [Example 291] |
| 2530 nM | 560 nM |  |  | CNC(=O)c1cnc(Nc2ccc(F)cn2)cc1Nc1ccc(C(=O)N(C)C)cc1S(C)(=O)=O [Example 306] |
| 1620 nM | 1720 nM |  |  | CNC(=O)c1cnc(Nc2cc(OC)ccn2)cc1Nc1ccc(F)cc1OC [Example 170] |
| 1240 nM | 1070 nM |  |  | CNC(=O)c1cnc(Nc2ccc3[nH]ccc3n2)cc1Nc1ccc(F)cc1OC [Example 160] |
| 1300 nM | 990 nM |  |  | CNC(=O)c1cnc(Nc2ccc(C)cn2)cc1Nc1ccc(Cl)cc1OC [Example 111] |
| 400 nM | 440 nM |  |  | CNC(=O)c1cnc(Nc2cc(C)c(F)cn2)cc1Nc1cccc(C(=O)NCCO)c1OC [Example 336] |
|  |  | 6350 nM | 4900 nM | CNC(=O)c1cnc(Nc2ccc3ccccc3n2)cc1NC1CCCC1(F)F (stereo not shown) [Example 294] |
| 6.22 nM | 8.34 nM |  |  | CNC(=O)c1cnc(Nc2ccc(F)cn2)cc1Nc1cccc(-c2ncn(C)n2)c1OC [Example 373] |
| 460 nM | 480 nM |  |  | CNC(=O)c1cnc(Nc2cc(C(C)(C)C)ncn2)cc1Nc1ccccc1S(C)(=O)=O [Example 421] |
| 7200 nM | 8260 nM |  |  | CNC(=O)c1cnc(Nc2ncccc2Cl)cc1Nc1ccccc1C(N)=O [Example 90] |
| 490 nM | 460 nM |  |  | CNC(=O)c1cnc(Nc2cc(NCc3ccccc3)ncn2)cc1Nc1ccccc1S(C)(=O)=O [Example 424] |
| 183 nM | 60 nM |  |  | CNC(=O)c1cnc(Nc2ccccn2)cc1Nc1cc(F)cc(F)c1OC [Example 131] |
| 897 nM | 660 nM |  |  | CNC(=O)c1cnc(Nc2ccc(F)cn2)cc1Nc1cc(F)ccc1OC [Example 199] |
| 802 nM | 260 nM |  |  | CNC(=O)c1cnc(Nc2ccc(N3CCOCC3)cn2)cc1Nc1ccc(F)cc1OC [Example 218] |
| 1060 nM | 520 nM |  |  | CNC(=O)c1cnc(Nc2ccccn2)cc1Nc1ccc(F)cc1OC [Example 147] |
| 70 nM | 30 nM |  |  | CNC(=O)c1cnc(Nc2cc(C)c(F)cn2)cc1Nc1cccc(C(=O)NCCN2CCOCC2)c1OC [Example 322] |
| 4930 nM | 4330 nM |  |  | CCc1cccc(Nc2cc(Nc3ccc(N4CCOCC4)cn3)ncc2C(=O)NC)c1 [Example 215] |
| 3260 nM | 3660 nM |  |  | CNC(=O)c1cnc(Nc2ccc(F)cn2)cc1Nc1ccc(C(=O)N2CCOCC2)cc1 [Example 245] |

From patent US9315494B2, “Alkyl-amide-substituted pyridyl compounds useful as modulators of IL-12, IL-23 and/or IFNα responses” (Bristol-Myers Squibb Company, priority 2012, dated 2016)
